Source: patent publication US20180280528A1, “ANTIFOLATE CONJUGATES FOR TREATING INFLAMMATION” (ENDOCYTE, INC., priority 2015, published 2018)

Assays:
Pharmacokinetics in rats = test: Pharmacokinetics in rats
Experimental: Each rat was used for collection of blood samples for a maximum of 4 time points. […] The samples were centrifuged for 3 minutes at 2000×g (Eppendorf 5417R centrifuge) to obtain plasma. The plasma samples were stored at −80° C. until LC-MS/MS analysis.
(§1) LC-MS/MS analysis utilized a Waters Acquity UPLC system paired with a Waters Quattro Premier XE tandem quadrupole mass spectrometer operating in ESI positive mode. Prior to injection, K3EDTA plasma samples were processed using a Phenomenex Strata X-A solid phase extraction (SPE) plate. All plasma samples were fortified with N-Maleoyl-β-alanine, mannitol, and acetic acid. Briefly, 50 μL of plasma diluted with 50 μL of internal standard solution and 500 μL 1000:4:1.5 water:ammonium hydroxide:formic acid was mixed and loaded onto a preconditioned Strata X-A SPE plate. Aqueous and organic washes were then applied followed by elution of all analytes with 300:200:7.5 methanol:water:formic acid. The samples were evaporated until approximately 30 μL remained in all wells and 30 μL of 9:1 water:ammonium hydroxide was then added. Finally, the plate was sealed, mixed, and centrifuged prior to transfer to the 2-8° C. Acquity autosampler. Note: During EC1669 analysis, EC0470 was converted to a hydrazone product for bioanalysis. Acetone (500 μL) was added to all samples after the first evaporation step followed by sealing all wells and heating at 50° C. for one hour. After this step, the acetone was evaporated and the extraction completed as described above.
(§2) A 10 μL sample volume was applied to the Waters BEH Shield RP18 100×2.1 mm, […] UPLC column operating at a flow rate of 0.4 mL/min while being maintained at 45° C. A gradient between mobile phase A (1000:4:1.5 water:ammonium hydroxide:formic acid) and mobile phase B (acetonitrile) was used to separate the analytes. The gradient was held at 2% B for the first 30 seconds of the chromatographic run followed by increasing to 20% B by 2.5 minutes. A rapid gradient from 60-90% B is then used to clean the column prior to equilibration at 2% B to complete the 4 minute run cycle.
(§3) For EC1669 MS/MS analysis, EC1669 and its known major metabolites, EC1886 and […], were optimized and monitored. […] In all cases, internal standard response was used to generate response ratios for each analyte. When calibrated, data was regressed using MassLynx 4.1 software. The table below lists transitions for analytes and internal standards monitored for LC-MS/MS bioanalysis.

Pharmacokinetics in dogs = conditions: for half-life: male
Experimental: (§4) The samples were centrifuged under refrigeration for at least 10 minutes at 3000 rpm and the plasma generated stored at −20° C. until LC-MS/MS analysis.
as §4, §1, §2, §3

[1] = test system: Rat adjuvant arthritis (AIA); test: Rat adjuvant arthritis (AIA) treatment studies; format: in vivo
Experimental: Female Lewis rats (175-200 g) were purchased from Harlan Sprague Dawley (Indianapolis, Ind.) and allowed to acclimate for 1 week. Generally, rats were fed a folate-deficient diet (Harlan Teklad) for 9-10 days prior to arthritis induction.
Rat adjuvant arthritis (AIA) was induced by intradermal inoculation (at the base of tail) of 0.45-0.46 mg of heat-killed Mycobacteria butyricum (BD Diagnostic Systems, Sparks, Md.) in 100 μL light mineral oil (Sigma). […] During the course of disease development, animals were weighed at least 3 times a week. Paw edema (degree of arthritis) were scored 3 times a week as follows: 0=no edema or arthritis; 1=swelling in one type of joint; 2=swelling in two types of joint; 3=swelling in three types of joint; 4=swelling of the entire paw. A total score for each rat is calculated by adding up the scores for each of the four paws, giving a maximum of 16 per animal.
On the first day of treatment, rats with desired arthritis scores were distributed evenly across the control and treatment groups (n=5). […] All compounds and conjugates were administered subcutaneously (s.c.) starting 9 days after arthritis induction with biweekly (BIW, Mondays and Thursdays) or once-a-week (QW, Mondays) dosing for two consecutive weeks. At the completion of each study (˜4 days after the last treatment), rats were euthanized by CO2 asphyxiation and processed for paw weight (cut at the hairline) and spleen weight.
The rat AIA model resembles many characteristics of human rheumatoid arthritis and it is very aggressive. […] The animals in the AIA control group were left untreated.

[2] = rat plasma, EC1669 dosed SC 500 nmol/kg
[3] = beagle dog plasma, EC1669 dosed SC 2.4 mg/kg (1073 nmol/kg), N=4
[4] = female, Lewis, rat, in vivo, sc, 500 nmol/kg
[5] = beagle, dog, in vivo, sc, 2.4 mg/kg

For `NNC(=O)CC[C@H](NC(=O)c1ccc(NCc2cnc3nc(N)nc(N)c3n2)cc1)C(=O)O` [EC0470, aminopterin gamma-hydrazide], which AUCinf (Pharmacokinetics in rats; [2]) is on record?
The AUCinf was 0.0659 µM·h.

What about the AUClast (Pharmacokinetics in rats; [2]) of the same compound?
Its AUClast is 0.0647 µM·h.

And the Cmax (Pharmacokinetics in rats; [2])?
Its Cmax is 21.2 nM.

What about the Tmax (Pharmacokinetics in rats; [2]) of the same compound?
Its Tmax is 1 h.

What about the t1/2 (Pharmacokinetics in rats; [2]) of the same compound?
The t1/2 was 1.64 h.

And the AUClast (Pharmacokinetics in dogs; [3])?
The AUClast was 0.51 µM·h.

What about the Cmax (Pharmacokinetics in dogs; [3]) of the same compound?
Its Cmax is 66.5 nM.

What about the Tmax (Pharmacokinetics in dogs; [3]) of the same compound?
The Tmax was 3.25 h.

And the t1/2 (Pharmacokinetics in dogs; [3])?
Its t1/2 is 4.38 h.

Which results are given for `Nc1nc(N)c2nc(CNc3ccc(C(=O)N[C@@H](CCC(=O)O)C(=O)O)cc3)cnc2n1` [EC1886, aminopterin, reference compound]?
AUCinf (Pharmacokinetics in rats; [4]): 0.0956 µM·h; AUClast (Pharmacokinetics in rats; [4]): 0.0947 µM·h; half-life (Pharmacokinetics in rats; [4]): 0.997 h; AUC(0-inf) (Pharmacokinetics in rats; female, Lewis, rat, in vivo, sc, 500 nmol/kg, AUCinf): 0.107 µM·h; AUClast (Pharmacokinetics in dogs; beagle dog plasma, EC2319 dosed SC 2.43 mg/kg (1074 nmol/kg), N=2): 0.157 µM·h; AUC(0-t) (Pharmacokinetics in dogs; [5]): 0.0417 µM·h; Cmax (Pharmacokinetics in dogs; [5]): 9.41 nM; Tmax (Pharmacokinetics in dogs; [5]): 3.5 h; AUClast of aminopterin released, higher from EC2319 than from EC1669 (Pharmacokinetics in dogs; dogs, subcutaneous dosing): ~3.8 fold; Cmax of aminopterin released, higher from EC2319 than from EC1669 (Pharmacokinetics in dogs; dogs, subcutaneous dosing): ~2.6 fold; half-life (Pharmacokinetics in dogs; beagle, dog, in vivo, iv, 1 mg/kg): 2 h; half-life (Pharmacokinetics in dogs; beagle, dog, in vivo, sc, 2.43 mg/kg): 2.74 h

Which “anti-arthritic activity with concurrent EC0923 (arthritis score, paw weight, spleen weight, body weight)” value ([1]; Study 2, 500 nmol/kg BIW plus 500-fold molar excess EC0923 (250 μmol/kg)) does the source give for `N=c1[nH]c(N)nc2ncc(CNc3ccc(C(=O)N[C@@H](CCC(=O)NCCSSC[C@@H](NC(=O)[C@H](CCC(=O)NC[C@H](O)[C@@H](O)[C@H](O)[C@H](O)CO)NC(=O)[C@@H](CCC(=O)O)NC(=O)[C@H](CCC(=O)NC[C@H](O)[C@@H](O)[C@H](O)[C@H](O)CO)NC(=O)[C@@H](CCC(=O)O)NC(=O)[C@H](CCC(=O)NC[C@H](O)[C@@H](O)[C@H](O)[C@H](O)CO)NC(=O)CC[C@H](NC(=O)c4ccc(NCc5cnc6nc(N)[nH]c(=O)c6n5)cc4)C(=O)O)C(=O)O)C(=O)O)cc3)nc12` [EC2285] here?
Its value is “fully blocked by EC0923”.

With `COC(=O)[C@H](CCCCNC(=O)[C@H](CCC(=O)NC[C@H](O)[C@@H](O)[C@H](O)[C@H](O)CO)NC(=O)[C@H](CCC(=O)O)NC(=O)[C@H](CCC(=O)NC[C@H](O)[C@@H](O)[C@H](O)[C@H](O)CO)NC(=O)[C@H](CCC(=O)O)NC(=O)[C@H](CCC(=O)NC[C@H](O)[C@@H](O)[C@H](O)[C@H](O)CO)NC(=O)CC[C@H](NC(=O)c1ccc(NCc2cnc3nc(N)[nH]c(=O)c3n2)cc1)C(=O)O)NC(=O)CC[C@H](NC(=O)c1ccc(NCc2cnc3nc(N)[nH]c(=N)c3n2)cc1)C(=O)O` [EC2413] as the compound, how does the anti-arthritic activity ([1]; Study 3, 500 nmol/kg, BIW) read?
The anti-arthritic activity was “significant anti-arthritic activity”.

What about the body weight ([1]; Study 3, 500 nmol/kg, BIW) of the same compound?
The body weight was “maintained a good body weight”.

And the “decreasing arthritis score, paw weight, and spleen weight” value ([1]; Study 3, 500 nmol/kg, BIW, two consecutive weeks)?
Its value is “inferior to both EC2319 and EC1669”.

And the “effectiveness in all parameters assessed” value ([1]; Study 3, 1000 nmol/kg (QW))?
Its value is “less effective than EC2413 dosed at 500 nmol/kg (BIW)”.

Which results are given for `COC(=O)[C@H](CSC1CC(=O)N(CCC(=O)O)C1=O)NC(=O)CC[C@H](NC(=O)c1ccc(NCc2cnc3nc(N)[nH]c(=N)c3n2)cc1)C(=O)O` (stereo partly shown) [EC2496]?
half-life (Pharmacokinetics in dogs; beagle, dog, plasma, iv, 1 mg/kg): 1.28 h; half-life (Pharmacokinetics in dogs; beagle, dog, plasma, sc, 2.43 mg/kg): 2.14 h
